Test results from the NIST ThermoML archive (doi:10.1016/j.jct.2017.08.028).
± gives the expanded uncertainty stated by the source.

Test: molar heat capacity at constant pressure
Settings: 101.33 kPa, Crystal, Small (less than 1 g) adiabatic calorimetry

O[C@H]1[C@H](O)[C@@H](O)[C@H](O)[C@@H](O)[C@H]1O [cis-1,2,3,5-trans-4,6-cyclohexanehexol]
Settings | molar heat capacity at constant pressure [J/K/mol]
5 K | 0.095 ± 0.009
6 K | 0.1967 ± 0.012
7 K | 0.3623 ± 0.018
8 K | 0.6094 ± 0.027
8.37 K | 0.774 ± 0.039
8.4 K | 0.78 ± 0.04
8.51 K | 0.803 ± 0.04
8.64 K | 0.841 ± 0.042
8.77 K | 0.885 ± 0.044
8.91 K | 0.93 ± 0.045
9 K | 0.9596 ± 0.041
9.05 K | 0.977 ± 0.047
9.2 K | 1.034 ± 0.05
9.34 K | 1.096 ± 0.052
9.5 K | 1.162 ± 0.055
9.65 K | 1.224 ± 0.057
9.81 K | 1.296 ± 0.06
9.98 K | 1.381 ± 0.063
10 K | 1.387 ± 0.058
10.17 K | 1.467 ± 0.067
10.39 K | 1.577 ± 0.071
10.59 K | 1.677 ± 0.075
10.81 K | 1.817 ± 0.081
11.05 K | 1.945 ± 0.086
11.28 K | 2.084 ± 0.092
11.52 K | 2.218 ± 0.097
11.76 K | 2.363 ± 0.1
12 K | 2.535 ± 0.11
12.25 K | 2.7 ± 0.12
12.5 K | 2.861 ± 0.12
12.75 K | 3.034 ± 0.13
13.01 K | 3.189 ± 0.14
13.27 K | 3.362 ± 0.14
13.53 K | 3.524 ± 0.15
13.81 K | 3.727 ± 0.16
14.08 K | 3.897 ± 0.17
14.35 K | 4.078 ± 0.17
14.63 K | 4.226 ± 0.18
14.91 K | 4.431 ± 0.19
15 K | 4.502 ± 0.18
15.19 K | 4.618 ± 0.2
15.47 K | 4.81 ± 0.2
15.75 K | 4.99 ± 0.21
16.04 K | 5.208 ± 0.22
16.32 K | 5.4 ± 0.23
16.61 K | 5.588 ± 0.23
16.9 K | 5.795 ± 0.24
17.2 K | 5.99 ± 0.25
17.49 K | 6.202 ± 0.26
17.78 K | 6.394 ± 0.27
18.08 K | 6.622 ± 0.28
18.37 K | 6.852 ± 0.28
18.67 K | 7.06 ± 0.29
18.97 K | 7.278 ± 0.3
19.27 K | 7.496 ± 0.31
19.57 K | 7.721 ± 0.32
19.87 K | 7.949 ± 0.33
20 K | 8.03 ± 0.32
20.46 K | 8.428 ± 0.12
21.33 K | 9.104 ± 0.13
22.21 K | 9.711 ± 0.13
23.1 K | 10.41 ± 0.14
24 K | 11.09 ± 0.15
24.9 K | 11.77 ± 0.15
25 K | 11.83 ± 0.13
25.81 K | 12.44 ± 0.16
26.73 K | 13.12 ± 0.17
27.66 K | 13.84 ± 0.17
28.59 K | 14.6 ± 0.18
30 K | 15.78 ± 0.17
30.38 K | 16.06 ± 0.21
31.42 K | 16.86 ± 0.21
32.38 K | 17.74 ± 0.22
33.35 K | 18.4 ± 0.23
34.31 K | 19.3 ± 0.24
35 K | 19.73 ± 0.21
35.28 K | 20.02 ± 0.25
36.25 K | 20.7 ± 0.25
37.23 K | 21.47 ± 0.26
38.21 K | 22.22 ± 0.27
39.19 K | 22.99 ± 0.28
40 K | 23.57 ± 0.24
40.18 K | 23.66 ± 0.18
41.16 K | 24.37 ± 0.19
42.15 K | 25.13 ± 0.19
43.15 K | 25.81 ± 0.19
44.14 K | 26.63 ± 0.2
45 K | 27.22 ± 0.13
45.14 K | 27.34 ± 0.2
46.17 K | 28.07 ± 0.2
47.17 K | 28.86 ± 0.21
48.17 K | 29.58 ± 0.21
49.18 K | 30.39 ± 0.22
50 K | 30.99 ± 0.14
50.18 K | 31.12 ± 0.22
51.2 K | 31.92 ± 0.22
53.79 K | 33.97 ± 0.23
54.97 K | 34.9 ± 0.24
55.99 K | 35.65 ± 0.24
57.01 K | 36.49 ± 0.25
58.03 K | 37.34 ± 0.25
59.05 K | 38.14 ± 0.26
60 K | 38.84 ± 0.18
60.07 K | 38.87 ± 0.26
61.1 K | 39.73 ± 0.26
62.12 K | 40.52 ± 0.27
63.15 K | 41.35 ± 0.27
64.17 K | 42.18 ± 0.28
65.2 K | 43.06 ± 0.28
66.23 K | 43.91 ± 0.29
67.26 K | 44.68 ± 0.29
68.29 K | 45.54 ± 0.3
69.32 K | 46.48 ± 0.3
70 K | 46.97 ± 0.21
70.38 K | 47.25 ± 0.3
71.85 K | 48.53 ± 0.31
73.87 K | 50.14 ± 0.32
75.89 K | 51.78 ± 0.33
77.91 K | 53.41 ± 0.34
78.79 K | 54.18 ± 0.34
79.15 K | 54.64 ± 0.34
79.8 K | 55.07 ± 0.35
80 K | 55.23 ± 0.25
80.92 K | 56.01 ± 0.35
81.14 K | 56.14 ± 0.35
83.15 K | 57.79 ± 0.36
85.15 K | 59.59 ± 0.37
87.15 K | 61.09 ± 0.38
89.15 K | 62.93 ± 0.39
90 K | 63.55 ± 0.32
91.14 K | 64.62 ± 0.41
93.14 K | 66.21 ± 0.42
95.13 K | 67.8 ± 0.43
97.12 K | 69.47 ± 0.44
99.11 K | 71.03 ± 0.45
100 K | 71.84 ± 0.35
101.58 K | 73.24 ± 0.46
104.56 K | 75.65 ± 0.47
107.54 K | 78.02 ± 0.48
110 K | 80.06 ± 0.38
110.53 K | 80.42 ± 0.49
113.53 K | 82.88 ± 0.5
116.54 K | 85.33 ± 0.51
119.54 K | 87.73 ± 0.52
120 K | 88.17 ± 0.41
122.54 K | 90.16 ± 0.54
125.55 K | 92.54 ± 0.55
128.56 K | 94.96 ± 0.56
130 K | 96.15 ± 0.44
131.58 K | 97.38 ± 0.57
134.6 K | 99.81 ± 0.58
137.62 K | 102.1 ± 0.6
140 K | 104 ± 0.5
140.65 K | 104.5 ± 0.6
143.68 K | 106.9 ± 0.6
146.71 K | 109.2 ± 0.6
149.74 K | 111.6 ± 0.6
150 K | 111.7 ± 0.5
152.78 K | 113.9 ± 0.7
155.81 K | 116.2 ± 0.7
158.85 K | 118.6 ± 0.7
160 K | 119.4 ± 0.5
161.89 K | 120.9 ± 0.7
164.97 K | 123.2 ± 0.7
168.01 K | 125.5 ± 0.7
170 K | 126.9 ± 0.6
171.06 K | 127.7 ± 0.7
174.1 K | 130 ± 0.7
177.15 K | 132.3 ± 0.7
180 K | 134.3 ± 0.6
180.2 K | 134.4 ± 0.8
183.25 K | 136.7 ± 0.8
186.3 K | 138.9 ± 0.8
189.35 K | 141.2 ± 0.8
190 K | 141.7 ± 0.6
192.4 K | 143.5 ± 0.8
195.46 K | 145.6 ± 0.8
198.52 K | 147.8 ± 0.8
200 K | 149.1 ± 0.6
201.57 K | 150.1 ± 0.8
204.63 K | 152.3 ± 0.8
208.19 K | 155.1 ± 0.9
210 K | 156.4 ± 0.7
212.26 K | 158 ± 0.9
216.41 K | 161.2 ± 0.9
220 K | 163.7 ± 0.7
220.48 K | 164 ± 0.9
224.57 K | 167.1 ± 0.9
228.65 K | 170.1 ± 0.9
230 K | 171.1 ± 0.7
232.72 K | 173.2 ± 0.9
236.81 K | 176.2 ± 1
240 K | 178.5 ± 0.8
240.91 K | 179.3 ± 1
245 K | 182.3 ± 1
249.09 K | 185.2 ± 1
250 K | 185.9 ± 0.8
253.18 K | 188.2 ± 1
257.27 K | 191.3 ± 1
260 K | 193.4 ± 0.8
261.36 K | 194.4 ± 1
265.46 K | 197.6 ± 1.1
269.55 K | 200.6 ± 1.1
270 K | 200.9 ± 0.9
273.15 K | 203.2 ± 0.9
273.64 K | 203.7 ± 1.1
277.73 K | 206.6 ± 1.1
280 K | 208.4 ± 0.9
281.9 K | 210 ± 1.1
285.98 K | 212.8 ± 1.1
290 K | 216 ± 0.9
290.07 K | 215.9 ± 1.1
294.15 K | 219 ± 1.2
298.15 K | 222.1 ± 0.9
298.22 K | 222 ± 1.2
300 K | 223.5 ± 0.9
303.01 K | 226 ± 1.2
308.39 K | 230 ± 1.2
310 K | 231.1 ± 1
313.76 K | 234 ± 1.2
319.12 K | 237.9 ± 1.3
320 K | 238.7 ± 1
324.46 K | 241.9 ± 1.3
329.77 K | 246 ± 1.3
330 K | 246.2 ± 1
335.05 K | 250.1 ± 1.3
340 K | 253.7 ± 1.1
340.3 K | 253.9 ± 1.3
